Test results reported in ChEMBL document CHEMBL3784916, “Synthesis and anticancer activity of novel fluorinated asiatic acid derivatives” (Eur J Med Chem, 2016).

Experiments:
MCF7 = test: Cytotoxicity against human MCF7 cells after 72 hrs by MTT assay; type: functional, cell-based
A-375 = test: Cytotoxicity against human A375 cells after 72 hrs by MTT assay; type: functional, cell-based
PC-3 = test: Cytotoxicity against human PC3 cells after 72 hrs by MTT assay; type: functional, cell-based
HeLa = test: Cytotoxicity against human HeLa cells after 72 hrs by MTT assay; type: functional, cell-based
MIA PaCa-2 = test: Cytotoxicity against human MIAPaCa2 cells after 72 hrs by MTT assay; type: functional, cell-based
BJ = test: Cytotoxicity against human BJ cells after 72 hrs by MTT assay; type: cell-based; conditions: human, bj
Jurkat = test: Cytotoxicity against human Jurkat cells after 72 hrs by XTT assay; type: functional, cell-based

| Structure (SMILES) | Activity (MCF7) | Activity (A-375) | Activity (PC-3) | IC50 (HeLa) [nM] | Activity (MIA PaCa-2) | Activity (BJ) | Activity (Jurkat) |
| --- | --- | --- | --- | --- | --- | --- | --- |
| CC(=O)OC[C@@]1(C)[C@@H]2CC[C@]3(C)[C@H](CC=C4[C@@H]5[C@@H](C)[C@H](C)CC[C@]5(C(N)=O)CC[C@]43C)[C@@]2(C)C[C@@H](OC(C)=O)[C@@H]1OC(C)=O | Dose-dependent effect | Dose-dependent effect | Dose-dependent effect | 1650 | Dose-dependent effect | Dose-dependent effect | Dose-dependent effect |
| COC(=O)[C@H](C)NC(=O)[C@]12CC[C@@H](C)[C@H](C)[C@H]1C1=CC[C@@H]3[C@@]4(C)C[C@@H](OC(C)=O)[C@H](OC(C)=O)[C@@](C)(COC(C)=O)[C@@H]4CC[C@@]3(C)[C@]1(C)CC2 | Dose-dependent effect | Dose-dependent effect | Dose-dependent effect | 1070 | Dose-dependent effect | Dose-dependent effect | Dose-dependent effect |
| CC(=O)OC[C@@]1(C)[C@@H]2CC[C@]3(C)[C@H](CC=C4[C@@H]5[C@@H](C)[C@H](C)CC[C@]5(C(=O)O)CC[C@]43C)[C@@]2(C)C[C@@H](OC(C)=O)[C@@H]1OC(C)=O | Dose-dependent effect | Dose-dependent effect | Dose-dependent effect | 6100 | Dose-dependent effect | Dose-dependent effect | Dose-dependent effect |
| COC(=O)CNC(=O)[C@]12CC[C@@H](C)[C@H](C)[C@H]1C1=CC[C@@H]3[C@@]4(C)C[C@@H](OC(C)=O)[C@H](OC(C)=O)[C@@](C)(COC(C)=O)[C@@H]4CC[C@@]3(C)[C@]1(C)CC2 | Dose-dependent effect | Dose-dependent effect | Dose-dependent effect | 980 | Dose-dependent effect | Dose-dependent effect | Dose-dependent effect |
| CNC(=O)[C@]12CC[C@@H](C)[C@H](C)[C@H]1C1=CC[C@@H]3[C@@]4(C)C[C@@H](OC(C)=O)[C@H](OC(C)=O)[C@@](C)(COC(C)=O)[C@@H]4CC[C@@]3(C)[C@]1(C)CC2 | Dose-dependent effect | Dose-dependent effect | Dose-dependent effect | 1100 | Dose-dependent effect | Dose-dependent effect | Dose-dependent effect |
| C[C@H]1[C@H](C)CC[C@@]23CC[C@]4(C)[C@](OC2=O)([C@H](F)C[C@@H]2[C@@]5(C)C(C#N)=C[C@@](C)(CO)[C@@H]5CC[C@]24C)[C@H]13 | Dose-dependent effect | Dose-dependent effect | Dose-dependent effect | 7500 | Dose-dependent effect | Dose-dependent effect | Dose-dependent effect |
| CC(=O)OC[C@@]1(C)[C@@H]2CC[C@]3(C)[C@H](C[C@@H](F)[C@]45OC(=O)[C@@]6(CC[C@@H](C)[C@H](C)[C@H]64)CC[C@]53C)[C@@]2(C)CC(=O)[C@@H]1OC(C)=O | Dose-dependent effect | Dose-dependent effect | Dose-dependent effect | 11700 | Dose-dependent effect | Dose-dependent effect | Dose-dependent effect |
